Target: T1, recombinant human PSMA (rhPSMA) (Homo sapiens, UniProt Q04609)
T1 construct: purchased Sino Biological
Test: Naaladase assay (fluorescence-based Naaladase activity inhibition)
Format: biochemical
Conditions: rhPSMA 0.4 μg/mL, substrate N-Acetyl-Asp-Glu 40 μM, 37° C. one hour
Experimental: Naaladase activity inhibition was determined using a fluorescence-based assay. Briefly, the solution containing the substrate N-Acetyl-Asp-Glu (Sigma-Aldrich) at 40 μM and the compound at concentrations from 0.15 nM to 1000 nM was mixed at equal volume with recombinant human PSMA (rhPSMA, Sino Biological) at 0.4 μg/mL, in assay buffer (50 mM HEPES, 100 mM NaCl, pH 7.5). The enzymatic reaction was proceeded by incubation at 37° C. for one hour and then stopped by heating at 95° C. for 5 minutes. A solution of 15 mM ortho-phthaldialdehyde (Sigma-Aldrich) was added to all vials and incubated for 10 min at ambient temperature. The reaction solutions were loaded onto a 96-well flat clear bottom black microplates (Corning) and read at excitation and emission wavelengths of 330 and 450 nm, respectively, using a microplate reader (Tecan). The data were analyzed by a one-site total binding regression algorithm of GraphPad Prism (GraphPad Software).

T1 sequence (Q04609 whole entry): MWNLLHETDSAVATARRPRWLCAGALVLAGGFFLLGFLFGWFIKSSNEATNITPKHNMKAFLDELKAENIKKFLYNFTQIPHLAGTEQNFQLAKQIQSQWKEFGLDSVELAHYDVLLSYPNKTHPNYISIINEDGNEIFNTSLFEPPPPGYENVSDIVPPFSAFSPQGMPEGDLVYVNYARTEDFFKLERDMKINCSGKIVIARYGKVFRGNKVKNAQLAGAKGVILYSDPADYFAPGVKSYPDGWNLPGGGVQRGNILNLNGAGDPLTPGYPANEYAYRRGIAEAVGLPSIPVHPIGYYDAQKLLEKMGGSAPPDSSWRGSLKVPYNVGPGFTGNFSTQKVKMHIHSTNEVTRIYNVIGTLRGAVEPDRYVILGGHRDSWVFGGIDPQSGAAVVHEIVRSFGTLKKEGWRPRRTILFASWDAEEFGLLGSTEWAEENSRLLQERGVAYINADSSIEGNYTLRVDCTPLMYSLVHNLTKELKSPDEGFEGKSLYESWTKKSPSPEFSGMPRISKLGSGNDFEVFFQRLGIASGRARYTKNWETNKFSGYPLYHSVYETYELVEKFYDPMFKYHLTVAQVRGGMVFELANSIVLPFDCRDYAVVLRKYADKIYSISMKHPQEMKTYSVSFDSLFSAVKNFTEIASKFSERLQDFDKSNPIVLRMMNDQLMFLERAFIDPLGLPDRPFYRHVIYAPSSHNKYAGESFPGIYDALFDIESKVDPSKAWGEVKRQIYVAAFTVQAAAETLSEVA

Row | IC50 | Structure (SMILES)
1 | 3.5 nM | O=C(O)CC[C@H](NC(=O)N[C@@H](CCCCNC(=O)C(Cc1ccc2ccccc2c1)Nc1nnc(C23CCC(CNC(=O)CN4CCN(CC(=O)O)CCN(CC(=O)O)CCN(CC(=O)O)CC4)(CC2)CC3)o1)C(=O)O)C(=O)O (single isomer, unassigned) [E17]
2 | 3.7 nM | O=C(O)CC[C@H](NC(=O)N[C@@H](CCCCNC(=O)C(Cc1ccc2ccccc2c1)Nc1nnc(C23CCC(CNC(=O)CN4CCN(CC(=O)O)CCN(CC(=O)O)CCN(CC(=O)O)CC4)(CC2)CC3)o1)C(=O)O)C(=O)O (single isomer, unassigned) [E18]
3 | 4 nM | O=C(O)CCC[C@H](NC(=O)N[C@@H](CCCCNC(=O)[C@H](Cc1c2ccccc2cc2ccccc12)Nc1c(NC23CCC(CNC(=O)CN4CCN(CC(=O)O)CCN(CC(=O)O)CCN(CC(=O)O)CC4)(CC2)CC3)c(=O)c1=O)C(=O)O)C(=O)O [E2, (S)-2-(3-((S)-5-((S)-3-(anthracen-9-yl)-2-((3,4-dioxo-2-((4-((2-(4,7,10-tris(carboxymethyl)-1,4,7,10-tetraazacyclododecan-1-yl)acetamido)methyl)bicyclo[2.2.2]octan-1-yl)amino)cyclobut-1-en-1-yl)amino)propanamido)-1-carboxypentyl)ureido)hexanedioic acid]
4 | 3 nM | O=C(O)CC[C@H](NC(=O)N[C@@H](CCCCNC(=O)[C@H](Cc1ccc2ccccc2c1)Nc1c(Nc2ccc3c(c2)CCN(C(=O)CN2CCN(CC(=O)O)CCN(CC(=O)O)CCN(CC(=O)O)CC2)C3)c(=O)c1=O)C(=O)O)C(=O)O [E5]

— patent US20260176254A1, “INHIBITORS OF PROSTATE SPECIFIC MEMBRANE ANTIGEN AND USE THEREOF” (SHANGHAI SINOTAU BIOTECH. CO., LTD, priority 2023, published 2026)
